#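 Values below derive from 48-hour exposures of cells grown in 96-well plates, with endpoints linearly interpolated between the two concentrations bracketing the appropriate inhibition level. TGI is the concentration that stops growth completely.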
# Legend:
# Assay in all cases: inhibition of tumour cell growth, NCI panel, 48 h
# 786-0 renal = test system: 786-0 renal
# A498 renal = test system: A498 renal
# HOP-92 NSCLC = test system: HOP-92 NSCLC
# HT29 colon = test system: HT29 colon
# MALME-3M melanoma = test system: MALME-3M melanoma
# NCI-H23 lung = test system: NCI-H23 lung
# NCI-H522 lung = test system: NCI-H522 lung
# SF-539 CNS = test system: SF-539 CNS
# TK-10 renal = test system: TK-10 renal
# UO-31 renal = test system: UO-31 renal
# DU-145 prostate = test system: DU-145 prostate
# HCC-2998 colon = test system: HCC-2998 colon
# HS 578T breast = test system: HS 578T breast
# NCI/ADR-RES ovarian = test system: NCI/ADR-RES ovarian
# OVCAR-4 ovarian = test system: OVCAR-4 ovarian
# PC-3 prostate = test system: PC-3 prostate
# RXF 393 renal = test system: RXF 393 renal
# UACC-257 melanoma = test system: UACC-257 melanoma
# T-47D breast = test system: T-47D breast
SMILES,TGI (786-0 renal),TGI (A498 renal),TGI (HOP-92 NSCLC),TGI (HT29 colon),TGI (MALME-3M melanoma),TGI (NCI-H23 lung),TGI (NCI-H522 lung),TGI (SF-539 CNS),TGI (TK-10 renal),TGI (UO-31 renal),TGI (DU-145 prostate),TGI (HCC-2998 colon),TGI (HS 578T breast),TGI (NCI/ADR-RES ovarian),TGI (OVCAR-4 ovarian),TGI (PC-3 prostate),TGI (RXF 393 renal),TGI (UACC-257 melanoma),TGI (T-47D breast)
CCOC(=O)CC(=Nc1cc(C)on1)N(CC)CC,> 100 µM,> 100 µM,> 100 µM,> 100 µM,> 100 µM,> 100 µM,> 100 µM,> 100 µM,> 100 µM,> 100 µM,,,,,,,,,
FC(F)(F)c1nc2cc(SSc3cc4nc(C(F)(F)F)[nH]c4cc3Cl)c(Cl)cc2[nH]1,> 100 µM,> 100 µM,,> 100 µM,> 100 µM,> 100 µM,> 100 µM,> 100 µM,> 100 µM,,> 100 µM,> 100 µM,> 100 µM,> 100 µM,> 100 µM,> 100 µM,> 100 µM,> 100 µM,
CC(=O)C1C(=O)C(=O)N(c2ccc([N+](=O)[O-])cc2Cl)C1=O (configuration not stated),> 100 µM,,> 100 µM,> 100 µM,,> 100 µM,> 100 µM,> 100 µM,> 100 µM,> 100 µM,> 100 µM,> 100 µM,> 100 µM,> 100 µM,> 100 µM,> 100 µM,> 100 µM,> 100 µM,
[N-]=[N+]=NC(c1cn(C2CC(O)C(CO)O2)c(=O)[nH]c1=O)C(I)I (configuration not stated),> 100 µM,> 100 µM,> 100 µM,> 100 µM,> 100 µM,> 100 µM,,> 100 µM,> 100 µM,> 100 µM,,> 100 µM,,,> 100 µM,,> 100 µM,> 100 µM,
CC[S+](C)c1ccc(-c2c3nc(c(-c4ccc([S+](C)CC)cc4)c4ccc([nH]4)c(-c4ccc([S+](C)CC)cc4)c4nc(c(-c5ccc([S+](C)CC)cc5)c5ccc2[nH]5)C=C4)C=C3)cc1 (configuration not stated),> 100 µM,> 100 µM,> 100 µM,> 100 µM,> 100 µM,> 100 µM,> 100 µM,> 100 µM,,,,,,,> 100 µM,,63.3 µM,> 100 µM,
CC(C)(CO)NC(=O)c1cccc(C(=O)NC(C)(C)CO)c1Br,> 100 µM,,> 100 µM,> 100 µM,> 100 µM,> 100 µM,,> 100 µM,> 100 µM,> 100 µM,> 100 µM,> 100 µM,,> 100 µM,> 100 µM,> 100 µM,> 100 µM,> 100 µM,> 100 µM
CN1CCN(c2ccc3nc(-c4ccc5nc(-c6ccc(N(C)CCCl)cc6)[nH]c5c4)[nH]c3c2)CC1,1.11 µM,6.74 µM,0.989 µM,0.675 µM,0.41 µM,7.4 µM,0.0365 µM,0.462 µM,9.77 µM,33.8 µM,11.4 µM,1.88 µM,0.58 µM,> 100 µM,1.04 µM,0.383 µM,0.501 µM,3.34 µM,
Oc1cccc2nc3cc(CN4CCOCC4)c(CN4CCOCC4)cc3nc12,> 100 µM,> 100 µM,> 100 µM,> 100 µM,> 100 µM,> 100 µM,> 100 µM,> 100 µM,> 100 µM,> 100 µM,,> 100 µM,,,> 100 µM,,> 100 µM,> 100 µM,
CCN1CCC(O)(c2ccc(Cl)c(Cl)c2)C(C(=O)c2ccc(Cl)c(Cl)c2)C1 (configuration not stated),29.1 µM,40.2 µM,29 µM,32.2 µM,33.6 µM,36.3 µM,13 µM,32.1 µM,30.5 µM,31.4 µM,,35.1 µM,,,32.6 µM,,,32 µM,
CNc1nc(=O)c(C#N)c(-c2ccc(C)cc2)s1,> 100 µM,,> 100 µM,> 100 µM,> 100 µM,> 100 µM,> 100 µM,> 100 µM,> 100 µM,> 100 µM,> 100 µM,> 100 µM,,> 100 µM,> 100 µM,> 100 µM,> 100 µM,> 100 µM,> 100 µM
O=C(Nc1cc([N+](=O)[O-])cc([N+](=O)[O-])c1)OC1C2CCC1C1OC1C2 (configuration not stated),> 50 µM,> 50 µM,> 50 µM,,> 50 µM,> 50 µM,> 50 µM,> 50 µM,> 50 µM,> 50 µM,,> 50 µM,,,> 50 µM,,> 50 µM,> 50 µM,
CC(=O)NNc1nc(C)c(C(/C=C/c2ccc(Cl)cc2)=N/NC(=S)NN)s1,> 100 µM,> 100 µM,> 100 µM,> 100 µM,> 100 µM,> 100 µM,> 100 µM,> 100 µM,> 100 µM,> 100 µM,,,,,> 100 µM,,> 100 µM,> 100 µM,
CN(C)C(=S)/N=c1\ssc(=S)n1Cc1ccccn1,29.1 µM,> 81.4 µM,64.5 µM,> 100 µM,22.7 µM,> 100 µM,4.17 µM,45.5 µM,> 100 µM,> 100 µM,,> 100 µM,,,> 52.3 µM,,20 µM,> 100 µM,
CCc1c(-c2coc(CC/C(C)=C/c3ccccc3)n2)oc(OC)c(C)c1=O,> 55.4 µM,> 100 µM,> 100 µM,> 31.6 µM,> 100 µM,> 95.4 µM,15.3 µM,> 65 µM,> 100 µM,> 53.1 µM,,> 100 µM,,,> 55.5 µM,,,> 100 µM,
